Measured values as given in patent US4455315A, “N-(Difluoromethoxy substituted phenyl)-dichloromaleimides used in agricultural and horticultural fungicidal methods” (Showa Denko Kabushiki Kaisha, priority 1980, dated 1984).

Key:
Alternaria kikuchiana [1] = experiment: Spore-germination Inhibiting Test; assay type: cell-based; details: 10 ppm, 27° C., 20 hours
Description: Spore-germination Inhibiting Test for Alternaria kukuchiana An apricot medium is inoculated with Alternaria kikuchiana and incubated at a temperature of 27° C. for 7-10 days to form conidia on the medium. […] 0.02 Ml of the prepared spore suspension containing the compound according to the present invention is dropped on a slide glass and incubated at a temperature of 27° C. under moist conditions for 20 hours. Thereafter, whether or not the spores germinate is examined under a microscope and the spore-germination rate is then calculated.

[2] = tested on: potted young oranges (variety: Unshu); experiment: Phytotoxicity of treating compound, Citrus Scab test; details: 250 ppm
Description: (§1) The resulting solution is sprayed, in an amount corresponding to 600 l/10a per pot, on potted young oranges (variety: Unshu) immediately after fresh leaves are unfolded. After one day, the potted young oranges are inoculated with Elsinoe fawcetti, by spraying a suspension of crushed hyphae thereof containing 50 crushed hyphae per microscopic field (magnification: X100). The suspension is prepared by culturing Elsinoe fawcetti on potato medium at a temperature of 25° C. for 30 days to form hyphae and suspending it in sterilized water.
(§2) After inoculation, the potted young oranges are allowed to stand at a temperature of 25° C. in a moist room for two days and then transferred to a greenhouse. Twenty-three days after inoculation, the leaf infested by citrus scab is examined, i.e., number of pathologic spots on a leaf is examined and the numbers of leaves infested by cirtrus scab are counted. Then, an infestation rate is calculated according to the following equation:

Phytophthora infestans = assay type: in vivo; details: 500 ppm; for Infested Leaves (%): six days after inoculation; for Infestation Rate: six days, (Σnf/3N)×100; for Number of Leaves Showing Each Infestation Index: 0: index 0 = 0% infested area; for Number of Leaves Showing Each Infestation Index: 1: index 1 = 1-25% infested area; for Number of Leaves Showing Each Infestation Index: 2: index 2 = 26-50% infested area; for Number of Leaves Showing Each Infestation Index: 3: index 3 = 51-100% infested area
[3] = tested on: potted young oranges (variety: Unshu); experiment: Phytotoxicity of treating compound, residual activity test; details: 1000 ppm, 23 mm/hr of rain
Diaporthe citri [4] = experiment: Test of Residual Activity against Citrus Melanose; assay type: in vivo; details: 1000 ppm, 23 mm/hr of rain; for Infested Leaves (%): 24 days after inoculation; for Infestation Rate: 24 days, (Σnf/4N)×100; for Number of Leaves Showing Each Infestation Index: 0: index 0 = 0-25% infested area; for Number of Leaves Showing Each Infestation Index: 1: index 1 = 26-50% infested area; for Number of Leaves Showing Each Infestation Index: 2: index 2 = 51-75% infested area; for Number of Leaves Showing Each Infestation Index: 3: index 3 = 76-90% infested area; for Number of Leaves Showing Each Infestation Index: 4: index 4 = 91-100% infested area
peroral acute toxicity = details: in vivo, po, four-week-old male mouse
[5] = tested on: potted apples (variety: Star King); experiment: Test of Phytotoxicity to Apples; details: 75% Wettable Powders, dilution × 750, 600 l/10 a, two weeks
Description: The resulting solution of wettable powders is sprayed, in an amount corresponding to 600 l/10a per pot, on potted apples (variety: Star King) immediately after fresh leaves are unfolded. After air-drying, the potted apples are allowed to stand in a greenhouse. Two weeks after the spray treatment, the phytotoxicity, of the compound according to the present invention, to the potted apples is examined.
For comparison, the above test is also carried out using a reference compound (fluoroimide) and plain water.

Alternaria mali = experiment: Apple Alternaria Leaf Spot-controlling Test; assay type: in vivo; details: 500 ppm, six days after inoculation
[6] = tested on: potted young oranges (variety: Unshu); experiment: Phytotoxicity of treating compound, Citrus Melanose test; details: 500 ppm
[7] = tested on: Pseudoperonospora cubensis; experiment: Cucumber Downy Mildew-controlling Test; assay type: in vivo; details: 1000 ppm, five days after inoculation
From the text: Cucumber Downy Mildew (Pseudoperonospora cubensis)-controlling Test […] After one day, the cucumbers are inoculated with Pseudoperonospora cubensis, by spraying a suspension thereof containing 30 spores per microscopic field (magnification: […]), which are collected from the leaves infested by cucumber downy mildew. […] In this test, one cucumber is planted in each pot and three pots are used.

[8] = tested on: potted apples (variety: Star King); experiment: Phytotoxicity of treating compound, Apple Scab test; details: 500 ppm
[9] = tested on: potted potatoes (variety: Chippewa); details: 500 ppm
TA-100 = experiment: mutagenicity test (Ames test), TA-100; assay type: cell-based
Diaporthe citri [10] = experiment: Citrus Melanose-controlling Test; assay type: in vivo; details: 500 ppm; for Infested Leaves (%): 24 days after inoculation; for Infestation Rate / Number of Leaves Showing Infestation Index 0 / Number of Leaves Showing Infestation Index 1 / Number of Leaves Showing Infestation Index 2 / Number of Leaves Showing Infestation Index 3 / Number of Leaves Showing Infestation Index 4: 24 days; for Infestation Rate: (Σnf/4N)×100; for Number of Leaves Showing Infestation Index 0: index 0 = 0-25% infested area; for Number of Leaves Showing Infestation Index 1: index 1 = 26-50% infested area; for Number of Leaves Showing Infestation Index 2: index 2 = 51-75% infested area; for Number of Leaves Showing Infestation Index 3: index 3 = 76-90% infested area; for Number of Leaves Showing Infestation Index 4: index 4 = 91-100% infested area
TA-98 = experiment: mutagenicity test (Ames test), TA-98; assay type: cell-based
ichthyotoxicity = details: killifish, in vivo; read-out: Tlm48
Venturia inaequalis = experiment: Apple Scab-controlling Test; assay type: in vivo; details: 500 ppm; for Infested Leaves (%): seven days after inoculation; for Infestation Rate: seven days, (Σnf/3N)×100; for Number of Leaves Showing Each Infestation Index: 0: index 0 = 0% infested area; for Number of Leaves Showing Each Infestation Index: 1: index 1 = 1-25% infested area; for Number of Leaves Showing Each Infestation Index: 2: index 2 = 26-50% infested area; for Number of Leaves Showing Each Infestation Index: 3: index 3 = 51-100% infested area
Alternaria kikuchiana [11] = experiment: Pear Black Spot-controlling Test; details: 500 ppm, six days after inoculation
Description: Pear Black Spot (Alternaria kikuchiana)-controlling Test
(§3) The resulting solution is sprayed on unfolded leaves of potted young pears (variety: Niju-seiki) in an amount corresponding to 600 l/10a per pot. After air-drying, the unfolded leaves are inoculated with Alternaria kikuchiana, by spraying a suspension of conidia thereof containing 30 conidia per microscopic field (magnification: X200).
(§4) After inoculation, the potted young pears are allowed to stand at a temperature of 27° C. in a moist room for one day and then transferred to a greenhouse. Six days after inoculation, the leaf area infested by pear black spot, i.e., the area of pathologic spots on a leaf is examined on 5 unfolded leaves per pot and an average infestation rate is then calculated.

Elsinoe fawcetti = experiment: Citrus Scab-controlling Test; details: 250 ppm; for Infested Leaves (%): 23 days after inoculation; for Infestation Rate: 23 days, (Σnf/3N)×100; for Number of Leaves Showing Each Infestation Index: 0: index 0 = 0 spots per leaf; for Number of Leaves Showing Each Infestation Index: 1: index 1 = 1-3 spots per leaf; for Number of Leaves Showing Each Infestation Index: 2: index 2 = 4-10 spots per leaf; for Number of Leaves Showing Each Infestation Index: 3: index 3 = ≥11 spots per leaf
Description: as §1, §2
Infestation Rate=(Σnf/3N)×100
wherein n is the number of the infested leaves, f is an infestation index and N is the total number of the examined leaves. The infestation index is as follows.
For comparison, the above test is also carried out using a reference compound (benomyl) and plain water.

[12] = tested on: potted young pears (variety: Niju-seiki); experiment: Phytotoxicity of treating compound, Pear Black Spot test; details: 500 ppm, damaged area on leaves
Description: as §3, §4
*The phytotoxicity of the treating compound is evaluated according to the

[13] = tested on: potted pears (variety: Niju-seiki); experiment: Test of Phytotoxicity to Pears; assay type: in vivo, pear; details: 75% Wettable Powders, two weeks
From the text: Test of Phytotoxicity to Pears
After air-drying, the potted pears are allowed to stand in a greenhouse.

plant pathogens = details: U.S. Pat. No. 2,444,536; cited from earlier work
crops and trees = details: cited from earlier work

## O=C1C(Cl)=C(Cl)C(=O)N1c1ccc(OC(F)F)cc1 [compound 3, 2,3-dichloro-N-(p-difluoromethoxyphenyl)maleimide]
Alternaria kikuchiana [1]
  Spore-germination Rate (%): 0%
[2]
  Phytotoxicity of Treating Compound: - (0%)
Phytophthora infestans
  Infested Leaves (%): 0%
  Infestation Rate: 0
  Number of Leaves Showing Each Infestation Index: 0: 20 leaves
  Number of Leaves Showing Each Infestation Index: 1: 0 leaves
  Number of Leaves Showing Each Infestation Index: 2: 0 leaves
  Number of Leaves Showing Each Infestation Index: 3: 0 leaves
[3]
  Phytotoxicity of Treating Compound: - (0%)
Diaporthe citri [4]
  Infested Leaves (%): 0%
  Infestation Rate: 0
  Number of Leaves Showing Each Infestation Index: 0: 187 leaves
  Number of Leaves Showing Each Infestation Index: 1: 0 leaves
  Number of Leaves Showing Each Infestation Index: 2: 0 leaves
  Number of Leaves Showing Each Infestation Index: 3: 0 leaves
  Number of Leaves Showing Each Infestation Index: 4: 0 leaves
Peroral acute toxicity
  LD50: > 300 mg/kg
[5]
  Phytotoxicity of Treating Compound: - (0%)
Alternaria mali
  Average Infestation Rate (%) (Based on infested area): 0%
[6]
  Phytotoxicity of Treating Compound: - (0%)
[7]
  Average Infestation Rate (%) (Based on infested area): 0%
[8]
  Phytotoxicity of Treating Compound: - (0%)
[9]
  Phytotoxicity of Treating Compound: - (0%)
TA-100
  Ames test TA-100: negative
Diaporthe citri [10]
  Infested Leaves (%): 0%
  Infestation Rate: 0
  Number of Leaves Showing Infestation Index 0: 271 leaves
  Number of Leaves Showing Infestation Index 1: 0 leaves
  Number of Leaves Showing Infestation Index 2: 0 leaves
  Number of Leaves Showing Infestation Index 3: 0 leaves
  Number of Leaves Showing Infestation Index 4: 0 leaves
TA-98
  Ames test TA-98: negative
ichthyotoxicity
  LC50 at 48 h: > 10 µg/mL
Venturia inaequalis
  Infested Leaves (%): 0%
  Infestation Rate: 0
  Number of Leaves Showing Each Infestation Index: 0: 25 leaves
  Number of Leaves Showing Each Infestation Index: 1: 0 leaves
  Number of Leaves Showing Each Infestation Index: 2: 0 leaves
  Number of Leaves Showing Each Infestation Index: 3: 0 leaves
Alternaria kikuchiana [11]
  Average Infestation Rate (%) (Based on infested area): 2%
Elsinoe fawcetti
  Infested Leaves (%): 0.6%
  Infestation Rate: 0.2
  Number of Leaves Showing Each Infestation Index: 0: 311 leaves
  Number of Leaves Showing Each Infestation Index: 1: 2 leaves
  Number of Leaves Showing Each Infestation Index: 2: 0 leaves
  Number of Leaves Showing Each Infestation Index: 3: 0 leaves
[12]
  Phytotoxicity of Treating Compound: - (0%)
[13]; dilution × 500, 600 l/10 a
  Phytotoxicity of Treating Compound: - (0%)
[13]; dilution × 750, 600 l/10 a
  Phytotoxicity of Treating Compound: - (0%)

## ZnMnEthylenebisdithiocarbamate [mancozeb]
Phytophthora infestans
  Infested Leaves (%): 0%
  Infestation Rate: 0
  Number of Leaves Showing Each Infestation Index: 0: 20 leaves
  Number of Leaves Showing Each Infestation Index: 1: 0 leaves
  Number of Leaves Showing Each Infestation Index: 2: 0 leaves
  Number of Leaves Showing Each Infestation Index: 3: 0 leaves
[3]
  Phytotoxicity of Treating Compound: - (0%)
Diaporthe citri [4]
  Infested Leaves (%): 0%
  Infestation Rate: 0
  Number of Leaves Showing Each Infestation Index: 0: 159 leaves
  Number of Leaves Showing Each Infestation Index: 1: 0 leaves
  Number of Leaves Showing Each Infestation Index: 2: 0 leaves
  Number of Leaves Showing Each Infestation Index: 3: 0 leaves
  Number of Leaves Showing Each Infestation Index: 4: 0 leaves
[6]
  Phytotoxicity of Treating Compound: - (0%)
[9]
  Phytotoxicity of Treating Compound: - (0%)
Diaporthe citri [10]
  Infested Leaves (%): 0%
  Infestation Rate: 0
  Number of Leaves Showing Infestation Index 0: 204 leaves
  Number of Leaves Showing Infestation Index 1: 0 leaves
  Number of Leaves Showing Infestation Index 2: 0 leaves
  Number of Leaves Showing Infestation Index 3: 0 leaves
  Number of Leaves Showing Infestation Index 4: 0 leaves

## O=C1C=CC(=O)N1c1ccccc1 [N-phenylmaleimide]
Plant pathogens
  fungicidal effect: has a fungicidal effect

## CCCCNC(=O)n1c(NC(=O)OC)nc2ccccc21 [benomyl, Methyl-1-(butylcarbamoyl)-2-benzimidazolecarbamate]
[2]
  Phytotoxicity of Treating Compound: - (0%)
[8]
  Phytotoxicity of Treating Compound: - (0%)
Venturia inaequalis
  Infested Leaves (%): 0%
  Infestation Rate: 0
  Number of Leaves Showing Each Infestation Index: 0: 25 leaves
  Number of Leaves Showing Each Infestation Index: 1: 0 leaves
  Number of Leaves Showing Each Infestation Index: 2: 0 leaves
  Number of Leaves Showing Each Infestation Index: 3: 0 leaves
Elsinoe fawcetti
  Infested Leaves (%): 0.6%
  Infestation Rate: 0.2
  Number of Leaves Showing Each Infestation Index: 0: 328 leaves
  Number of Leaves Showing Each Infestation Index: 1: 2 leaves
  Number of Leaves Showing Each Infestation Index: 2: 0 leaves
  Number of Leaves Showing Each Infestation Index: 3: 0 leaves

## O=C1C(Cl)=C(Cl)C(=O)N1c1ccc(F)cc1 [fluoroimide, N(p-Fluorophenyl)-2,3-dichloromaleimide]
Crops and trees; pear trees, strawberries, beans, and very many other crops
  phytotoxicity: severe phytotoxicity
Crops and trees; wide variety of crops and trees
  leaf-burn: liable to cause leaf-burn
[5]
  Phytotoxicity of Treating Compound: + (6-25%)
[13]; dilution × 500, 600 l/10 a
  Phytotoxicity of Treating Compound: ++ (26-50%)
[13]; dilution × 750, 600 l/10 a
  Phytotoxicity of Treating Compound: + (6-25%)
